Assay results as given in patent US10875876B2, “Cyclized sulfamoylarylamide derivatives and the use thereof as medicaments for the treatment of hepatitis B” (priority 2015, dated 2020).
Read-outs that look alike come from different tables or passages of the source.

Assays:
[1] = tested on: HBV; experiment: anti HBV activity, HepG2.117 cell line, intracellular HBV DNA by realtime PCR; assay type: cell-based; conditions: HepG2.117 cell line (Tet-off), 3 days of treatment, intracellular HBV DNA quantified by realtime PCR, read-out: HBV-AVE-HepG2.117 EC50
Procedure, shortened: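 HepG2.117 cells, a Tet-off line that replicates HBV without doxycycline, were induced and then treated in duplicate with serially diluted compound. After 3 days, intracellular HBV DNA was quantified by real-time PCR with an HBV-specific primer set and probe.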

[2] = Cytotoxicity in HepG2 cells, Resazurin assay; conditions: human, HepG2 cells, TOX-HepG2-4 d CC50 (μM), HepG2 cells incubated for 4 days, viability by Resazurin assay
[3] = Hepatitis B virus, HepG2.117, 72 h

Row | Compound | EC50 [1, 3] | CC50 at 4 days [2] | EC50 [1]
1 | Cc1cc(NC(=O)c2c3c(cn2C)S(=O)(=O)N[C@@H](C(O)C2CC2)CO3)ccc1F (single isomer, unassigned) [Compound 206a, 3-[cyclopropyl(hydroxy)methyl]-N-(4-fluoro-3-methyl-phenyl)-7-methyl-1,1-dioxo-3,4-dihydro-2H-pyrrolo[3,4-b][1,4,5]oxathiazepine-6-carboxamide] | 13 nM | > 25 µM | 
2 | C[C@H](O)[C@H]1COc2c(cn(C)c2C(=O)Nc2ccnc(C(F)F)c2)S(=O)(=O)N1 [Compound 77, (3R)—N-[2-(difluoromethyl)-4-pyridyl]-3-[(1S)-1-hydroxyethyl]-7-methyl-1,1-dioxo-3,4-dihydro-2H-pyrrolo[3,4-b][1,4,5]oxathiazepine-6-carboxamide] | 230 nM | > 25 µM | 
3 | Cc1cc(CC2(C)COc3c(cn(C)c3C(=O)Nc3ccc(F)c(C(F)F)c3)S(=O)(=O)N2)n(C)n1 (racemic) [Compound 176, N-[3-(difluoromethyl)-4-fluoro-phenyl]-3-[(2,5-dimethylpyrazol-3-yl)methyl]-3,7-dimethyl-1,1-dioxo-2,4-dihydropyrrolo[3,4-b][1,4,5]oxathiazepine-6-carboxamide] | 4 nM | > 25 µM | 
4 | CCC(O)[C@@H]1COc2c(cn(C)c2C(=O)Nc2ccc(F)c(C(F)F)c2)S(=O)(=O)N1 (single isomer, unassigned) [Compound 144a, N-[3-(difluoromethyl)-4-fluoro-phenyl]-3-(1-hydroxypropyl)-7-methyl-1,1-dioxo-3,4-dihydro-2H-pyrrolo[3,4-b][1,4,5]oxathiazepine-6-carboxamide] |  | > 25 µM | 19 nM
5 | Cn1cc2c(c1C(=O)Nc1ccc(F)c(F)c1)CCC(CO)(CO)NS2(=O)=O [Compound 201, N-(3,4-difluorophenyl)-3,3-bis(hydroxymethyl)-7-methyl-1,1-dioxo-4,5-dihydro-2H-pyrrolo[3,4-f]thiazepine-6-carboxamide] | 110 nM | > 25 µM | 
6 | CC1C=Cc2c(cn(C)c2C(=O)Nc2ccc(F)c(F)c2)S(=O)(=O)N1C (stereo not drawn) [Compound 18, N-(3,4-difluorophenyl)-2,3,7-trimethyl-1,1-dioxo-3H-pyrrolo-[3,4-f]thiazepine-6-carboxamide] | 710 nM | > 25 µM | 
7 | Cn1cc2c(c1C(=O)Nc1ccc(F)c(C#N)c1)CCC(C(F)(F)F)NS2(=O)=O (single isomer, unassigned) [Compound 60a, N-(3-cyano-4-fluoro-phenyl)-7-methyl-1,1-dioxo-3-(trifluoromethyl)-2,3,4,5-tetrahydropyrrolo[3,4-f]thiazepine-6-carboxamide] |  | > 25 µM | 55 nM
8 | CC(C)N1CCc2c(cn(C)c2C(=O)Nc2ccc(F)c(F)c2)S1(=O)=O [Compound 16, N-(3,4-difluorophenyl)-2-isopropyl-6-methyl-1,1-dioxo-3,4-dihydropyrrolo[3,4-e]thiazine-5-carboxamide] | 230 nM | > 25 µM | 
9 | Cc1cc(NC(=O)c2c3c(cn2C)S(=O)(=O)N[C@@H](C)C=C3)ccc1F (single isomer, unassigned) [Compound 31, (*S)—N-(4-fluoro-3-methyl-phenyl)-3,7-dimethyl-1,1-dioxo-2,3-dihydropyrrolo[3,4-f]thiazepine-6-carboxamide] | 9 nM | > 25 µM | 
10 | Cn1cc2c(c1C(=O)Nc1ccc(F)c(F)c1)OC[C@@H]([C@@H](O)c1ccccc1)NS2(=O)=O [Compound 63, (3S)—N-(3,4-difluorophenyl)-3-[(S)-hydroxy(phenyl)methyl]-7-methyl-1,1-dioxo-3,4-dihydro-2H-pyrrolo[3,4-b][1,4,5]oxathiazepine-6-carboxamide] | 240 nM | > 25 µM | 
11 | CC1CCOc2c(cn(C)c2C(=O)Nc2ccc(F)c(F)c2)S(=O)(=O)N1 (stereo not drawn) [Compound 21, N-(3,4-difluorophenyl)-3,8-dimethyl-1,1-dioxo-2,3,4,5-tetrahydropyrrolo[3,4-b][1,4,5]oxathiazocine-7-carboxamide] | 150 nM | > 25 µM | 
12 | CCC(O)[C@H]1COc2c(cn(C)c2C(=O)Nc2ccc(F)c(C#N)c2)S(=O)(=O)N1 (stereo partly drawn) [Compound 122a, (3R)—N-(3-cyano-4-fluoro-phenyl)-3-(1-hydroxypropyl)-7-methyl-1,1-dioxo-3,4-dihydro-2H-pyrrolo[3,4-b][1,4,5]oxathiazepine-6-carboxamide] | 12 nM | > 25 µM | 
13 | Cc1ccc(NC(=O)c2c(F)ccc3c2OC[C@@H](C(C)C)NS3(=O)=O)cc1F [Compound 46, (3R)-7-fluoro-N-(3-fluoro-4-methyl-phenyl)-3-isopropyl-1,1-dioxo-3,4-dihydro-2H-5,1λ^6,2-benzoxathiazepine-6-carboxamide] | 330 nM | > 25 µM | 
14 | Cn1cc2c(c1C(=O)Nc1ccc(F)c(C#N)c1)CCC1(COC1)NS2(=O)=O [Compound 138, N-(3-cyano-4-fluoro-phenyl)-7-methyl-1,1-dioxo-spiro[4,5-dihydro-2H-pyrrolo[3,4-f]thiazepine-3,3′-oxetane]-6-carboxamide] | 29 nM | > 25 µM | 
15 | C[C@@H]1Oc2c(cn(C)c2C(=O)Nc2ccc(F)c(C(F)F)c2)S(=O)(=O)N[C@@H]1CO [compound 234] | > 500 nM | > 25 µM | 
16 | Cn1cc2c(c1C(=O)Nc1ccc(F)c(F)c1)OC[C@@H](C1(O)CC1)NS2(=O)=O [Compound 196, (3S)—N-(3,4-difluorophenyl)-3-(1-hydroxycyclopropyl)-7-methyl-1,1-dioxo-3,4-dihydro-2H-pyrrolo[3,4-b][1,4,5]oxathiazepine-6-carboxamide] | 65 nM | > 25 µM | 
17 | Cn1cc2c(c1C(=O)Nc1ccc(F)c(F)c1)OC[C@@](C)(Cc1ccccc1)NS2(=O)=O [Compound 154, (3R)-3-benzyl-N-(3,4-difluorophenyl)-3,7-dimethyl-1,1-dioxo-2,4-dihydropyrrolo[3,4-b][1,4,5]oxathiazepine-6-carboxamide] | 8 nM | > 25 µM | 
18 | Cc1cc(NC(=O)c2c3c(cn2C)S(=O)(=O)N[C@@H](C)CC3)ccc1F (single isomer, unassigned) [Compound 41, (3*S)—N-(4-fluoro-3-methyl-phenyl)-3,7-dimethyl-1,1-dioxo-2,3,4,5-tetrahydropyrrolo[3,4-f]thiazepine-6-carboxamide] | 8 nM | > 25 µM | 
19 | C[C@H]1CCc2c(cn(C)c2C(=O)Nc2ccnc(Br)c2)S(=O)(=O)N1 (single isomer, unassigned) [Compound 57, (3*S)—N-(2-bromo-4-pyridyl)-3,7-dimethyl-1,1-dioxo-2,3,4,5-tetrahydropyrrolo[3,4-f]thiazepine-6-carboxamide] | 13 nM | > 25 µM | 
20 | Cn1cc2c(c1C(=O)Nc1ccc(F)c(F)c1)CCC(C(F)(F)F)NS2(=O)=O (stereo not drawn) [Compound 47, N-(3,4-difluorophenyl)-7-methyl-1,1-dioxo-3-(trifluoromethyl)-2,3,4,5-tetrahydropyrrolo[3,4-f]thiazepine-6-carboxamide] | 17 nM | > 25 µM | 
21 | COC(C)(C)C1COc2c(cn(C)c2C(=O)Nc2ccc(F)c(F)c2)S(=O)(=O)N1 (stereo not drawn) [Compound 80, N-(3,4-difluorophenyl)-3-(1-methoxy-1-methyl-ethyl)-7-methyl-1,1-dioxo-3,4-dihydro-2H-pyrrolo[3,4-b][1,4,5]oxathiazepine-6-carboxamide] | 18 nM | > 25 µM | 
22 | CC(C)[C@H]1COc2c(cn(C)c2C(=O)Nc2ccc(F)c(F)c2)S(=O)(=O)N1 [Compound 22, (3S)—N-(3,4-difluorophenyl)-3-isopropyl-7-methyl-1,1-dioxo-3,4-dihydro-2H-pyrrolo[3,4-b][1,4,5]oxathiazepine-6-carboxamide] | 9 nM | > 25 µM | 
23 | C[C@H]1C=Cc2c(cn(C)c2C(=O)Nc2ccc(F)c(C#N)c2)S(=O)(=O)N1 (single isomer, unassigned) [Compound 32, (*S)—N-(3-cyano-4-fluoro-phenyl)-3,7-dimethyl-1,1-dioxo-2,3-dihydropyrrolo[3,4-f]thiazepine-6-carboxamide] | 3 nM | > 25 µM | 
24 | C[C@H](O)[C@H]1COc2c(cn(C)c2C(=O)Nc2ccc(F)c(C(F)F)c2)S(=O)(=O)N1 [Compound 64, (3R)—N-[3-(difluoromethyl)-4-fluoro-phenyl]-3-[(1S)-1-hydroxyethyl]-7-methyl-1,1-dioxo-3,4-dihydro-2H-pyrrolo[3,4-b][1,4,5]oxathiazepine-6-carb oxamide] | 8 nM | > 25 µM | 
25 | Cn1cc2c(c1C(=O)Nc1ccc(F)c(Cl)c1)OCC(C)(Cc1ccc(Cl)nc1)NS2(=O)=O (stereo not drawn) [Compound 198, N-(3-chloro-4-fluoro-phenyl)-3-[(6-chloro-3-pyridyl)methyl]-3,7-dimethyl-1,1-dioxo-2,4-dihydropyrrolo[3,4-b][1,4,5]oxathiazepine-6-carboxamide] | 11 nM | > 25 µM | 
26 | CCC(O)[C@@H]1COc2c(cn(C)c2C(=O)Nc2ccc(F)c(F)c2)S(=O)(=O)N1 (stereo in doubt) [Compound 142b, N-(3,4-difluorophenyl)-3-(1-hydroxypropyl)-7-methyl-1,1-dioxo-3,4-dihydro-2H-pyrrolo[3,4-b][1,4,5]oxathiazepine-6-carboxamide] | > 125 nM | > 25 µM | 
27 | C[C@H]1CCc2c(cn(C)c2C(=O)Nc2ccnc(C(F)(F)F)c2)S(=O)(=O)N1 (single isomer, unassigned) [Compound 53, (3*S)-3,7-dimethyl-1,1-dioxo-N-[2-(trifluoromethyl)-4-pyridyl]-2,3,4,5-tetrahydropyrrolo[3,4-f]thiazepine-6-carboxamide] | 190 nM | > 25 µM | 
